Assays:
[1] = tested on: CCO18CD colon fibroblasts stimulated with TGF-β; experiment: High throughput microscopy-based anti-fibrotic drug screen (α-SMA and collagen 1 expression); format: cell-based
Text: FIG. 1 is images of cells from high throughput microscopy-based analysis of an FDA-approved drug library for potential anti-fibrotic properties.
FIGS. 3A-3C are images of cells from high throughput microscopy-based analysis of potential drugs for anti-fibrotic properties.

[2] = tested on: key fibrosis genes (ACTA2, COL1A1, COL3A1, TGFBR1) in transplanted intestinal tissue; experiment: Subcutaneous intestinal transplant fibrosis model, qPCR of fibrosis genes; format: in vivo; conditions: mouse; one subcutaneous injection 15 mg/kg; one week after implantation; versus oral pirfenidone 100 mg/kg three times daily
Text: A 1-2 cm segment of bowel was excised from one mouse and implanted in the subcutaneous space on the neck of another mouse of the same genetic background. […] One week after tissue implantation and initiation of treatment, the segment of transplanted intestine tissue was excised to assess expression of key genes involved in fibrosis (α-SMA, ACTA2; collagen type 1, COL1A1; collagen type 3, COL3A1; TGF-β receptor 1, TGFBR1) by qPCR.

[3] = mouse, in vivo, sc, 50 mg/kg
[4] = tested on: intestinal fibroblast cells; experiment: Cell survival in the microscopy-based screen; conditions: at effective concentrations

SMILES | concentration causing reduction in α-SMA and collagen production ([1]; TGF-β stimulated colon fibroblasts) | concentration level at which induced expression of α-SMA and/or collagen was reduced (in words) ([1]; TGF-β stimulated intestinal fibroblasts) | repression of fibrosis genes (ACTA2, COL1A1, COL3A1, TGFBR1) [2] | mortality [3] | impact on cell survival [4]
Cc1ccc(=O)n(-c2ccccc2)c1 [pirfenidone] | 4 mM | millimolar concentrations | – | – | –
Clc1ccc(CSC(Cn2ccnc2)c2ccc(Cl)cc2Cl)cc1 (centres unmarked) [sulconazole, 1-[2-[(4-chlorophenyl)methylsulfanyl]-2-(2,4-dichlorophenyl)ethyl]imidazole] | – | – | significantly more effective than pirfenidone | death of mice | minimal impact on cell survival

Source: patent publication US20240226067A9, “ANTI-FIBROTIC THERAPIES” (THE JOHNS HOPKINS UNIVERSITY, priority 2021, published 2024)
